Laboratory results: patent US11833133B2, “Solid oral pharmaceutical composition” (Orient Pharma Co., Ltd., priority 2020, dated 2023)
Values belong to the molecule of their own block, whether it stands above or below them.

Tests used:
[1] = Long term stability of composition of pitavastatin calcium and ezetimibe (25° C./60% RH); type: physicochemical; settings: Example 5 composition, Alu-alu blisters
Experimental: The composition of pitavastatin calcium and ezetimibe prepared in Example 5 of the present disclosure were packed in Alu-alu blisters and stored under long term stability (25° C./60% RH). The assay of pitavastatin calcium and ezetimibe as well as the impurities were measured.

[2] = system: nephrectomized rats fed high-cholesterol; settings: cited from earlier work
[3] = Dissolution test, USP apparatus II (Paddle Method) with sinkers, HPLC; type: physicochemical
Experimental: Dissolution Methods and Assay
Dissolution medium such as 0.1N HCl, phosphate buffer (pH 4.5) and phosphate buffer (pH 6.8) were prepared following USP Method. 0.3% Tween 80 was added into the medium to help solubilize the active ingredients. Dissolution conditions were summarized as in the following. Dissolution samples were analyzed by HPLC method.
Apparatus: USP apparatus II (Paddle Method) with sinkers.
Medium: 0.1N HCl, Phosphate Buffer phosphate buffer (pH 4.5) or Phosphate Buffer phosphate buffer (pH 6.8).
Filter: 10 μm HDPE full flow filter tips

[4] = system: chronic kidney disease patients; settings: ezetimibe 10 mg/day co-administered with pitavastatin calcium 2 mg/day; cited from earlier work
[5] = Example 1 single layered tablet, 5 min
[6] = Example 1 single layered tablet, 10 min
[7] = Example 1 single layered tablet, 15 min
[8] = Example 1 single layered tablet, 30 min
[9] = Example 1 single layered tablet, 45 min
[10] = Example 2 double layered tablet, 5 min
[11] = Example 2 double layered tablet, 10 min
[12] = Example 2 double layered tablet, 15 min
[13] = Example 2 double layered tablet, 30 min
[14] = Example 2 double layered tablet, 45 min
[15] = pellets in one capsule (Example 5), 5 min
[16] = pellets in one capsule (Example 5), 10 min
[17] = pellets in one capsule (Example 5), 15 min
[18] = pellets in one capsule (Example 5), 20 min
[19] = pellets in one capsule (Example 5), 30 min
[20] = pellets in one capsule (Example 5), 45 min

Assay (%) ([1]; 3 Months): 99.5%
Impurities (%), Major ([1]; 3 Months): 0.06%
Impurities (%), Total ([1]; 3 Months): 0.06%
Assay (%) ([1]; 6 Months): 101%
Impurities (%), Major ([1]; 6 Months): 0.06%
Impurities (%), Total ([1]; 6 Months): 0.06%
Assay (%) ([1]; 9 Months): 102.9%
Impurities (%), Major ([1]; 9 Months): 0.06%
Impurities (%), Total ([1]; 9 Months): 0.06%
Assay (%) ([1]; 12 Months): 99.7%
Impurities (%), Major ([1]; 12 Months): 0.06%
Impurities (%), Total ([1]; 12 Months): 0.06%
Assay (%) ([1]; Initial): 100%
Impurities (%), Major ([1]; Initial): 0.06%
Impurities (%), Total ([1]; Initial): 0.06%
% Released into 0.1 N HCl with 0.3% Tween 80 at sampling time (min) [3, 5]: 56%
% Released into Phosphate Buffer (pH 6.8) with 0.3% Tween 80 at sampling time (min) [3, 5]: 54%
% Released into 0.1 N HCl with 0.3% Tween 80 at sampling time (min) [3, 6]: 70%
% Released into Phosphate Buffer (pH 6.8) with 0.3% Tween 80 at sampling time (min) [3, 6]: 77%
% Released into 0.1 N HCl with 0.3% Tween 80 at sampling time (min) [3, 7]: 77%
% Released into Phosphate Buffer (pH 6.8) with 0.3% Tween 80 at sampling time (min) [3, 7]: 86%
% Released into 0.1 N HCl with 0.3% Tween 80 at sampling time (min) [3, 8]: 86%
% Released into Phosphate Buffer (pH 6.8) with 0.3% Tween 80 at sampling time (min) [3, 8]: 94%
% Released into 0.1 N HCl with 0.3% Tween 80 at sampling time (min) [3, 9]: 91%
% Released into Phosphate Buffer (pH 6.8) with 0.3% Tween 80 at sampling time (min) [3, 9]: 96%
% Released into 0.1 N HCl with 0.3% Tween 80 at sampling time (min) [3, 10]: 30%
% Released into Phosphate Buffer (pH 6.8) with 0.3% Tween 80 at sampling time (min) [3, 10]: 42%
% Released into 0.1 N HCl with 0.3% Tween 80 at sampling time (min) [3, 11]: 56%
% Released into Phosphate Buffer (pH 6.8) with 0.3% Tween 80 at sampling time (min) [3, 11]: 72%
% Released into 0.1 N HCl with 0.3% Tween 80 at sampling time (min) [3, 12]: 67%
% Released into Phosphate Buffer (pH 6.8) with 0.3% Tween 80 at sampling time (min) [3, 12]: 80%
% Released into 0.1 N HCl with 0.3% Tween 80 at sampling time (min) [3, 13]: 79%
% Released into Phosphate Buffer (pH 6.8) with 0.3% Tween 80 at sampling time (min) [3, 13]: 88%
% Released into 0.1 N HCl with 0.3% Tween 80 at sampling time (min) [3, 14]: 83%
% Released into Phosphate Buffer (pH 6.8) with 0.3% Tween 80 at sampling time (min) [3, 14]: 91%
% Released into 0.1 N HCl with 0.3% Tween 80 at sampling time (min) [3, 15]: 71%
% Released into Phosphate Buffer (pH 4.5) with 0.3% Tween 80 at sampling time (min) [3, 15]: 64%
% Released into Phosphate Buffer (pH 6.8) with 0.3% Tween 80 at sampling time (min) [3, 15]: 69%
% Released into 0.1 N HCl with 0.3% Tween 80 at sampling time (min) [3, 16]: 95%
% Released into Phosphate Buffer (pH 4.5) with 0.3% Tween 80 at sampling time (min) [3, 16]: 99%
% Released into Phosphate Buffer (pH 6.8) with 0.3% Tween 80 at sampling time (min) [3, 16]: 96%
% Released into 0.1 N HCl with 0.3% Tween 80 at sampling time (min) [3, 17]: 99%
% Released into Phosphate Buffer (pH 4.5) with 0.3% Tween 80 at sampling time (min) [3, 17]: 103%
% Released into Phosphate Buffer (pH 6.8) with 0.3% Tween 80 at sampling time (min) [3, 17]: 102%
% Released into 0.1 N HCl with 0.3% Tween 80 at sampling time (min) [3, 18]: 100%
% Released into Phosphate Buffer (pH 4.5) with 0.3% Tween 80 at sampling time (min) [3, 18]: 104%
% Released into Phosphate Buffer (pH 6.8) with 0.3% Tween 80 at sampling time (min) [3, 18]: 103%
% Released into 0.1 N HCl with 0.3% Tween 80 at sampling time (min) [3, 19]: 101%
% Released into Phosphate Buffer (pH 4.5) with 0.3% Tween 80 at sampling time (min) [3, 19]: 105%
% Released into Phosphate Buffer (pH 6.8) with 0.3% Tween 80 at sampling time (min) [3, 19]: 104%
% Released into 0.1 N HCl with 0.3% Tween 80 at sampling time (min) [3, 20]: 101%
% Released into Phosphate Buffer (pH 4.5) with 0.3% Tween 80 at sampling time (min) [3, 20]: 105%
% Released into Phosphate Buffer (pH 6.8) with 0.3% Tween 80 at sampling time (min) [3, 20]: 104%
Compound: O=C1[C@H](CC[C@H](O)c2ccc(F)cc2)[C@@H](c2ccc(O)cc2)N1c1ccc(F)cc1 [Ezetimibe, ezetimibe]
Kidney dysfunction / kidney damage [2]: confers renoprotective effects
Proteinuria-lowering effects [4]: enhances proteinuria-lowering effects of pitavastatin calcium

Assay (%) ([1]; 3 Months): 96.4%
Impurities (%), Major ([1]; 3 Months): 0.03%
Impurities (%), Total ([1]; 3 Months): 0.03%
Assay (%) ([1]; 6 Months): 97%
Impurities (%), Major ([1]; 6 Months): 0.09%
Impurities (%), Total ([1]; 6 Months): 0.09%
Assay (%) ([1]; 9 Months): 95%
Impurities (%), Major ([1]; 9 Months): 0.08%
Impurities (%), Total ([1]; 9 Months): 0.13%
Assay (%) ([1]; 12 Months): 96.5%
Impurities (%), Major ([1]; 12 Months): 0.05%
Impurities (%), Total ([1]; 12 Months): 0.05%
Assay (%) ([1]; Initial): 98.2%
Impurities (%), Major ([1]; Initial): 0.02%
Impurities (%), Total ([1]; Initial): 0.02%
% Released into 0.1 N HCl with 0.3% Tween 80 at sampling time (min) [3, 5]: 79%
% Released into Phosphate Buffer (pH 6.8) with 0.3% Tween 80 at sampling time (min) [3, 5]: 69%
% Released into 0.1 N HCl with 0.3% Tween 80 at sampling time (min) [3, 6]: 84%
% Released into Phosphate Buffer (pH 6.8) with 0.3% Tween 80 at sampling time (min) [3, 6]: 90%
% Released into 0.1 N HCl with 0.3% Tween 80 at sampling time (min) [3, 7]: 86%
% Released into Phosphate Buffer (pH 6.8) with 0.3% Tween 80 at sampling time (min) [3, 7]: 95%
% Released into 0.1 N HCl with 0.3% Tween 80 at sampling time (min) [3, 8]: 89%
% Released into Phosphate Buffer (pH 6.8) with 0.3% Tween 80 at sampling time (min) [3, 8]: 97%
% Released into 0.1 N HCl with 0.3% Tween 80 at sampling time (min) [3, 9]: 90%
% Released into Phosphate Buffer (pH 6.8) with 0.3% Tween 80 at sampling time (min) [3, 9]: 98%
% Released into 0.1 N HCl with 0.3% Tween 80 at sampling time (min) [3, 10]: 81%
% Released into Phosphate Buffer (pH 6.8) with 0.3% Tween 80 at sampling time (min) [3, 10]: 90%
% Released into 0.1 N HCl with 0.3% Tween 80 at sampling time (min) [3, 11]: 87%
% Released into Phosphate Buffer (pH 6.8) with 0.3% Tween 80 at sampling time (min) [3, 11]: 96%
% Released into 0.1 N HCl with 0.3% Tween 80 at sampling time (min) [3, 12]: 89%
% Released into Phosphate Buffer (pH 6.8) with 0.3% Tween 80 at sampling time (min) [3, 12]: 97%
% Released into 0.1 N HCl with 0.3% Tween 80 at sampling time (min) [3, 13]: 86%
% Released into Phosphate Buffer (pH 6.8) with 0.3% Tween 80 at sampling time (min) [3, 13]: 99%
% Released into 0.1 N HCl with 0.3% Tween 80 at sampling time (min) [3, 14]: 89%
% Released into Phosphate Buffer (pH 6.8) with 0.3% Tween 80 at sampling time (min) [3, 14]: 100%
% Released into 0.1 N HCl with 0.3% Tween 80 at sampling time (min) [3, 15]: 90%
% Released into Phosphate Buffer (pH 4.5) with 0.3% Tween 80 at sampling time (min) [3, 15]: 82%
% Released into Phosphate Buffer (pH 6.8) with 0.3% Tween 80 at sampling time (min) [3, 15]: 81%
% Released into 0.1 N HCl with 0.3% Tween 80 at sampling time (min) [3, 16]: 99%
% Released into Phosphate Buffer (pH 4.5) with 0.3% Tween 80 at sampling time (min) [3, 16]: 100%
% Released into Phosphate Buffer (pH 6.8) with 0.3% Tween 80 at sampling time (min) [3, 16]: 98%
% Released into 0.1 N HCl with 0.3% Tween 80 at sampling time (min) [3, 17]: 100%
% Released into Phosphate Buffer (pH 4.5) with 0.3% Tween 80 at sampling time (min) [3, 17]: 102%
% Released into Phosphate Buffer (pH 6.8) with 0.3% Tween 80 at sampling time (min) [3, 17]: 102%
% Released into 0.1 N HCl with 0.3% Tween 80 at sampling time (min) [3, 18]: 100%
% Released into Phosphate Buffer (pH 4.5) with 0.3% Tween 80 at sampling time (min) [3, 18]: 102%
% Released into Phosphate Buffer (pH 6.8) with 0.3% Tween 80 at sampling time (min) [3, 18]: 102%
% Released into 0.1 N HCl with 0.3% Tween 80 at sampling time (min) [3, 19]: 100%
% Released into Phosphate Buffer (pH 4.5) with 0.3% Tween 80 at sampling time (min) [3, 19]: 102%
% Released into Phosphate Buffer (pH 6.8) with 0.3% Tween 80 at sampling time (min) [3, 19]: 102%
% Released into 0.1 N HCl with 0.3% Tween 80 at sampling time (min) [3, 20]: 99%
% Released into Phosphate Buffer (pH 4.5) with 0.3% Tween 80 at sampling time (min) [3, 20]: 102%
% Released into Phosphate Buffer (pH 6.8) with 0.3% Tween 80 at sampling time (min) [3, 20]: 102%
Compound: O=C([O-])C[C@H](O)C[C@H](O)/C=C/c1c(C2CC2)nc2ccccc2c1-c1ccc(F)cc1.O=C([O-])C[C@H](O)C[C@H](O)/C=C/c1c(C2CC2)nc2ccccc2c1-c1ccc(F)cc1.[Ca+2] [Pitavastatin Ca, pitavastatin calcium]
Kidney dysfunction / kidney damage [2]: additively ameliorates kidney damage
